Molecules are shown by their SMILES.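 The compound was tested at five concentrations on cells cultured in 96-well plates, with a 48-hour exposure period. At the TGI there is no net growth.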

Some test systems named below: 786-0 renal; T-47D breast; BT-549 breast; HCT-15 colon; M14 melanoma; SNB-19 CNS; UO-31 renal; HOP-62 NSCLC; SN12C renal; SK-MEL-2 melanoma; MDA-MB-231 breast; HOP-92 NSCLC; SK-OV-3 ovarian; RPMI-8226 leukemia; UACC-62 melanoma; OVCAR-4 ovarian; UACC-257 melanoma; SK-MEL-5 melanoma; MOLT-4 leukemia.
What all share (assay): NCI-60 cell line screen, 48 h

Consider `CN(C)/C=N/S(=O)(=O)c1nn2c(C=O)c(-c3ccc(-c4ccccc4)cc3)nc2s1`, for which the TGI in the test with 786-0 renal is 2.99 µM; with T-47D breast it was 5.57 µM; with BT-549 breast, 3.05 µM; in the test on HCT-15 colon, 7.75 µM; in the test on M14 melanoma it was 3.12 µM; with SNB-19 CNS, 25.5 µM. In addition, the TGI in the test on UO-31 renal is 2.73 µM; in the test with HOP-62 NSCLC it was 22.9 µM; in the test on SN12C renal it was 3.19 µM; in the test with SK-MEL-2 melanoma it was 8.24 µM; in the test with MDA-MB-231 breast, 7.35 µM; in the test on HOP-92 NSCLC, 10.1 µM. In addition, the TGI turned out to be 36.2 µM with SK-OV-3 ovarian; 3 µM in the test with RPMI-8226 leukemia; 6.45 µM in the test on UACC-62 melanoma; 4.24 µM in the test on OVCAR-4 ovarian; 9.31 µM in the test with UACC-257 melanoma; 3.04 µM with SK-MEL-5 melanoma.

For `O=C(N/N=C\c1ccc([N+](=O)[O-])cc1)Nc1ccc2ccccc2c1`, the TGI in the test with 786-0 renal was 32.7 µM; with T-47D breast, above 100 µM; in the test on BT-549 breast it was above 100 µM; in the test with HCT-15 colon, above 100 µM; in the test with M14 melanoma it was above 100 µM; in the test on SNB-19 CNS, above 100 µM. Also, the TGI is above 100 µM with MOLT-4 leukemia; above 100 µM in the test with UO-31 renal; 51.2 µM in the test on HOP-62 NSCLC; above 100 µM with SN12C renal; above 100 µM in the test on SK-MEL-2 melanoma; 63.8 µM with MDA-MB-231 breast. Moreover, the TGI in the test on HOP-92 NSCLC is 54.4 µM; in the test on SK-OV-3 ovarian, 89.1 µM; in the test on RPMI-8226 leukemia, above 100 µM; with UACC-62 melanoma, above 100 µM; in the test on OVCAR-4 ovarian, 46.2 µM; with UACC-257 melanoma it was above 100 µM. Moreover, the TGI in the test on SK-MEL-5 melanoma was above 100 µM.

Turning to `N=c1oc2ccccc2cc1C(=O)Nc1ccccn1`, the TGI with 786-0 renal, in the test on T-47D breast, with BT-549 breast, with HCT-15 colon, in the test on M14 melanoma and with SNB-19 CNS was above 100 µM in each case. The TGI with MOLT-4 leukemia, with HOP-62 NSCLC, with SN12C renal, in the test on SK-MEL-2 melanoma, with MDA-MB-231 breast and in the test with HOP-92 NSCLC was above 100 µM throughout. The TGI in the test on SK-OV-3 ovarian, in the test on RPMI-8226 leukemia, in the test on UACC-62 melanoma, with OVCAR-4 ovarian, with UACC-257 melanoma and with SK-MEL-5 melanoma was above 100 µM each time.

Take `CSc1cc(Cl)c(C(=O)Nc2ccccc2)cc1S(=O)(=O)n1cc[nH]c1=O`: the TGI in the test on 786-0 renal, in the test on T-47D breast, with BT-549 breast, with HCT-15 colon, in the test with M14 melanoma and in the test with SNB-19 CNS was above 100 µM throughout. Further, the TGI in the test with MOLT-4 leukemia, with UO-31 renal, with HOP-62 NSCLC, in the test on SN12C renal, in the test on SK-MEL-2 melanoma and with MDA-MB-231 breast was above 100 µM each time. Besides, the TGI in the test with HOP-92 NSCLC, in the test with SK-OV-3 ovarian, in the test on RPMI-8226 leukemia, in the test on UACC-62 melanoma, in the test with OVCAR-4 ovarian and with UACC-257 melanoma was above 100 µM each time. In the test on SK-MEL-5 melanoma, this molecule gave a TGI above 100 µM.

With `C1=C(c2ccccc2)NC2=N[C@H]3CCCC[C@@H]3N2C1c1ccccc1` (stereo not given in full), the TGI amounted to 30.7 µM with 786-0 renal; 35.5 µM with T-47D breast; 24 µM with BT-549 breast; 23.5 µM in the test on HCT-15 colon; 25.5 µM in the test with M14 melanoma; 27.7 µM with SNB-19 CNS. Also, the TGI with MOLT-4 leukemia was found to be 28.3 µM; with UO-31 renal, 24.8 µM; in the test with SK-MEL-2 melanoma it was 32 µM; in the test on MDA-MB-231 breast, 30.2 µM; in the test on HOP-92 NSCLC, 25.2 µM; in the test on SK-OV-3 ovarian it was 29.3 µM. Also, the TGI in the test on RPMI-8226 leukemia was found to be 49.8 µM; in the test with UACC-62 melanoma, 28.6 µM; with OVCAR-4 ovarian it was 22.2 µM; in the test on UACC-257 melanoma it was 27.7 µM; with SK-MEL-5 melanoma it was 27.9 µM.

As to `COC(=O)C1=CCC[C@H]2[C@@]1(COC(C)=O)CC[C@@H](C)[C@]2(C)CC(=O)c1ccoc1`, the TGI in the test on 786-0 renal is above 50 µM; with T-47D breast, 35.7 µM; with BT-549 breast, 31.3 µM; with HCT-15 colon, 49.5 µM; with M14 melanoma, above 50 µM; with SNB-19 CNS it was above 50 µM. Also, the TGI was 31.8 µM in the test on MOLT-4 leukemia; above 50 µM with UO-31 renal; above 50 µM in the test with SN12C renal; above 50 µM in the test on SK-MEL-2 melanoma; above 50 µM with MDA-MB-231 breast; 37.8 µM with HOP-92 NSCLC. Besides, the TGI was above 50 µM in the test with SK-OV-3 ovarian; 29.6 µM with RPMI-8226 leukemia; 20.1 µM in the test on UACC-62 melanoma; above 50 µM in the test on OVCAR-4 ovarian; above 50 µM with UACC-257 melanoma; 16.9 µM with SK-MEL-5 melanoma.

As to `C#CCNC(CCCN=C(N)N)C(=O)O` (stereo not given), the TGI with 786-0 renal, in the test on T-47D breast, in the test on BT-549 breast, with HCT-15 colon, in the test on M14 melanoma and in the test on SNB-19 CNS was above 100 µM in each case. In addition, the TGI in the test on MOLT-4 leukemia, in the test on UO-31 renal, in the test with HOP-62 NSCLC, in the test on SK-MEL-2 melanoma, with MDA-MB-231 breast and in the test on HOP-92 NSCLC was above 100 µM throughout. The TGI with SK-OV-3 ovarian, in the test with RPMI-8226 leukemia, in the test on UACC-62 melanoma, in the test with OVCAR-4 ovarian, in the test with UACC-257 melanoma and in the test with SK-MEL-5 melanoma was above 100 µM in each case.

For the molecule `CC(Oc1ccc(Cl)cc1Cl)C(=O)NN1C(=O)CC(=O)NC1=S` (stereo not given), the TGI in the test with 786-0 renal, in the test with T-47D breast, with BT-549 breast, in the test with HCT-15 colon, with M14 melanoma and in the test with SNB-19 CNS was above 100 µM throughout. Further, the TGI with UO-31 renal, in the test with HOP-62 NSCLC, in the test on SN12C renal, in the test with SK-MEL-2 melanoma, in the test on MDA-MB-231 breast and with HOP-92 NSCLC was above 100 µM each time. Besides, the TGI in the test with SK-OV-3 ovarian, in the test on RPMI-8226 leukemia, in the test with UACC-62 melanoma, in the test on OVCAR-4 ovarian, in the test with UACC-257 melanoma and in the test with SK-MEL-5 melanoma was above 100 µM throughout.

(Values after PubChem BioAssay (NCI).)
